In general, IC50 refers to the midpoint of a concentration-inhibition curve.

The record followed here is patent publication US9006284B2, “Combination therapy for treating proliferative diseases” (Bionomics Limited, priority 2009, dated 2015).

The subject of assay [1] is Human umbilical vein endothelial cells (HUVECs), tumour type activated endothelial cells. Kind of assay: Proliferation assay, activated endothelium (Tum). It counts as cell-based. Conditions: HUVEC, given as ranges. The protocol:
(§1) Proliferation Assay—activated endothelium: Human umbilical vein endothelial cells (CC-2519, Clonetics) were plated at 2500 cells/well in EGM2 (CC-3162, Clonetics) in a 96 well plate in triplicate. Cells were cultured overnight at 37° C. 5% CO2. Medium was subsequently replaced with fresh medium including the compound or negative control. Cells were cultured for a period of 48 hrs. An MTT assay was performed to measure changes in cell numbers. Briefly, 20 μl of MTT reagent was added to cells containing 100 μl of EGM2 and incubated at 37° C. for 2 hours. Absorbance was measured at 492 nm.

Assay [2] relates to Human umbilical vein endothelial cells (HUVECs), normal quiescent type endothelial cells. Description: Proliferation assay, quiescent endothelium (Norm). The class given is cell-based. Conditions: HUVEC, given as ranges. How it is done: as §1, with “Assay—quiescent” for “Assay—activated”, “15000” for “2500”, “EBM2 (CC-3156, Clonetics)+0.5% FBS (CC-4101A, Clonetics)+GA-1000 (CC-4381A,” for “EGM2 (CC-3162,”, “EBM2+0.5% FBS” for “EGM2”

A further assay has as its system MDA-MB-231. Kind of assay: Growth inhibition (SRB or cell counting), MDA-MB-231. The conditions noted are these: Homo sapiens; MDA-MB-231 (footnote b); given as ranges; read-out: Cancer cell line: IC50. It counts as cell-based.
For assay [3], the system named is MDA-MB-231 solid orthotopic tumors. Kind of assay: Tumor growth inhibition, MDA-MB-231 orthotopic tumors. It counts as in vivo, Balb/c nu/nu mice. Conditions: 40 mg/kg i.v., two cycles, up to 72 days; vs vehicle p<0.001 from day 4 to Day 70. An excerpt: Animals were i.v. dosed with a total of two cycles of Example 2 treatment. Each cycle was dosing on […] followed by a three week no-dosing period. Tumor growth represented as a ratio to initial tumor volume is shown over a total of 72-days.
Tumor growth as well as animal health were monitored for up to 72 days post-day 1 of treatment. […] Significant differences in tumor growth between Example 2 treated (n=64) and vehicle treated (n=20) animals were observed as early as day 4 (p<0.001; unpaired t-test; Prism® analysis) through to Day 70.

Another assay concerns Caki-1 xenograft tumors. Description: Immunohistochemistry analysis of Caki-1 renal xenografts. The class given is in vivo, BALB/c nu/nu mice. The conditions noted are these: single i.v. 32 mg/kg. The source says: These effects result in some reduction of tumor growth in animal models. Tumor recovery from the vascular damage caused by VDA action occurs within 48 hrs post-treatment. Furthermore, vascular disruption spares the outer cellular rim of a tumor mass that appears to be supported by normal vessels that surround the tumor capsule and remain unaffected by VDA action. It is reasonable to hypothesise that his viable rim subsequently supports tumor revascularisation and recovery from the action of the VDA agent. We hypothesised that the recovery of the tumors from the effects of the VDA action is driven by molecular pathways that support cancer cell survival and induction of angiogenesis. We undertook a number of histological analyses to assess the damage caused by Example 2 on the integrity of components of the tumor microenvironment and obtain information of upregulation of proteins that are likely to be involved in tumor recovery. Our analyses included evaluation of the expression of VEGF, phosphorylated mTOR, Hypoxia inducible factor-1-alpha (Hif-1α), and Hypoxia inducible factor-2-alpha (Hif-2α), the level of apoptosis, integrity of endothelial cells and the basement membrane protein laminin.
Female BALB/c nu/nu mice at 6 to 8 weeks were injected s.c. with the human cancer cell line Caki-1 representing renal cancer. Cells were resuspended in Dulbecco's PBS (Sigma-Aldrich) and 5×10^6 cells were injected s.c. Tumors were grown to an average size of 700 mm^3 prior to treatment. Example 2 treatment consisted of a single i.v. injection at dose level of 32 mg/kg. Saline treatment was included as a vehicle control. Animals were euthanized and tumors were excised for histologic examination 24 hours post dosing. Cryosections of tumors were prepared and probed with phosphorylated mTOR (ser 2448), Hif-1α, Hif-2α and CD31 specific antibodies. Antibody staining was visualized using 3,3′-Diaminobenzidine (brown staining) and sections were conterstained with Myers hematoxylin.

For another assay, the system named is MCF-7. Description: Growth inhibition (SRB or cell counting), MCF-7. Conditions: Homo sapiens, MCF7, concentration required to inhibit net cell growth by 50%, read-out: Cancer cell line: IC50. It counts as cell-based.
The test system of assay [4] is tumor endothelial cells (activated) and normal endothelial cells (quiescent). Description: Selectivity between activated and quiescent endothelial cells. The class given is cell-based. How it is done: as §1, with “Assay—quiescent” for “Assay—activated”, “15000” for “2500”, “EBM2 (CC-3156, Clonetics)+0.5% FBS (CC-4101A, Clonetics)+GA-1000 (CC-4381A,” for “EGM2 (CC-3162,”, “EBM2+0.5% FBS” for “EGM2”
as §1

The mark [5] stands for this setting: around the viable rim region, 24 hours.

Take `CCc1oc2c(O)c(OC)ccc2c1C(=O)c1cc(OC)c(OC)c(OC)c1` [Example 33]: the IC50 in assay [1] and in assay [2] was 0.1 to 1 nM each time.
As to `COc1cc(C(=O)c2c(NCCS(N)(=O)=O)oc3c(O)c(OC)ccc23)cc(OC)c1OC` [Example 45], the IC50 in assay [1] and in assay [2] was 1 to 10 nM in each case.
`COc1cc(C(=O)c2c(C#N)oc3c(O)c(OC)ccc23)cc(OC)c1OC` [Example 23]: the IC50 was in the range of 0.1 to 1 nM with MDA-MB-231, 1 to 10 nM in assay [1] and 1 to 10 nM in assay [2].
Turning to `COc1cc(C(=O)c2c(C)oc3c(OP(=O)([O-])[O-])c(OC)ccc23)cc(OC)c1OC.[Na+].[Na+]` [Example 2, Disodium 6-methoxy-2-methyl-3-(3,4,5-trimethoxybenzoyl)benzofuran-7-yl phosphate], in assay [3], the “Tumor growth (ratio to initial tumor volume)” value was “tumor growth inhibition”. For the same compound, in the assay with Caki-1 xenograft tumors (24-30 hrs after treatment), the “Number of apoptotic cells within the tumor” value is listed as “significant increase in the number of apoptotic cells”, the “Staining of laminin (basement membrane integrity)” value is given as “considerable reduction in the staining”, the “Staining with anti-human VEGF antibody” value is “dramatic increase in staining” and the “Staining with endothelial cell marker CD31” value is listed as “decrease in staining”. Moreover, in the assay with Caki-1 xenograft tumors (setting [5]), the “Expression of Hif-1α” value is “Increased expression”, the “Expression of Hif-2α” value is listed as “Increased expression” and the “Expression of phosphorylated mTOR (ser 2448)” value is recorded as “Increased expression”.
Regarding `COc1ccc2c(C(=O)c3cc(OC)c(OC)c(OC)c3)coc2c1` [Example 5], the IC50 was 55 nM with MCF-7, 10 to 100 nM in assay [1] and 10 to 100 nM in assay [2].
For `COc1ccc(/C=C\c2cc(OC)c(OC)c(OC)c2)cc1O` [Combretastatin A4], the “Selectivity activated vs quiescent endothelial cells” value in assay [4] was “equally potent against quiescent and activated endothelial cells”.
For `CCCCc1oc2c(O)c(OC)ccc2c1C(=O)c1cc(OC)c(OC)c(OC)c1` [Example 32], the IC50 in assay [1] and in assay [2] was 1 to 10 nM throughout.
Regarding `COc1cc(C(=O)c2coc3c(N)c(OC)ccc23)cc(OC)c1OC` [Example 19], the IC50 (in the assay on MDA-MB-231; in assay [1]; in assay [2]) was 1 to 10 nM throughout.
As to `COc1cc(C(=O)c2c(CN(C)C)oc3c(O)c(OC)ccc23)cc(OC)c1OC` [Example 34], the IC50 in assay [1] and in assay [2] was 1 to 10 nM each time.
Consider `CNc1oc2c(O)c(OC)ccc2c1C(=O)c1cc(OC)c(OC)c(OC)c1` [Example 10], for which the figures for the IC50 (in the assay with MCF-7; in assay [1]; in assay [2]) were 3.5 nM, 1 to 10 nM and 0.1 to 1 nM, respectively.
`COc1cc(C(=O)c2c(C)sc3c(O)c(OC)ccc23)cc(OC)c1OC` [Example 42]: the IC50 in assay [1] was in the range of 0.1 to 1 nM; in assay [2], 1 to 10 nM.
On to `C#Cc1oc2c(O)c(OC)ccc2c1C(=O)c1cc(OC)c(OC)c(OC)c1` [Example 12], for which the IC50 in the assay with MCF-7 was 3.3 nM; in assay [1] it was 1 to 10 nM; in assay [2], 1 to 10 nM.
On to `COc1cc(C(=O)c2c(N)oc3c(O)c(OC)ccc23)cc(OC)c1OC` [Example 25], for which the IC50 in the assay with MDA-MB-231 lay within 0.1 to 1 nM; in assay [1], 1 to 10 nM; in assay [2], 1 to 10 nM.
Regarding `COc1ccc(/C=C\c2cc(OC)c(OC)c(OC)c2)cc1OP(=O)(O)O` [Example 4], the figures for the IC50 (in the assay on MCF-7; in assay [1]; in assay [2]) were 5 nM, 1 to 10 nM and 1 to 10 nM, respectively.
Consider `COc1cc(C(=O)c2c(C)[nH]c3c(O)c(OC)ccc23)cc(OC)c1OC` [Example 39], for which the IC50 is 0.01 to 0.1 nM in assay [1] and 0.1 to 1 nM in assay [2].
The like results for `COc1ccc2c(C(=O)c3cc(OC)c(OC)c(OC)c3)c(C)sc2c1` [Example 41] were, in that order, 1 to 10 nM and 1 to 10 nM.
